{"source": "patent US20080075695A1", "about": "“COMBINATION THERAPY METHOD FOR TREATING HEPATITIS C VIRUS INFECTION AND PHARMACEUTICAL COMPOSITIONS FOR USE THEREIN” (priority 2006, published 2008)", "key": {"[1]": {"target": "T1, HCV NS5B protein (genotype 1b, BB7) (Hepatitis C virus genotype 1b, UniProt Q9WMX2)", "T1 construct": "of which the carboxyl terminal 21 amino acids were removed to enhance its solubility; made in house; host or cells: E. coli", "experiment": "Inhibition of viral RNA-dependent RNA polymerase (RdRp)", "type": "biochemical", "details": "purified HCV NS5B, C-terminal 21 amino acids removed", "description": "The HCV NS5B-directed RdRp activity was established and characterized in a standard in vitro biochemical assay using a purified HCV NS5B protein derived from the consensus sequence of a patient infected with HCV genotype 1b virus (BB7). (See Blight K J et al., Science. 2000, 290:1972-4). The NS5B consensus sequence was cloned and expressed in E. coli as a histidine tagged ([…]) fusion protein, of which the carboxyl terminal 21 amino acids were removed to enhance its solubility.\nIn addition to evaluating its activity in the replicon assay, as described above, the BZF of Example 1 was also evaluated for antiviral activity using this assay."}, "HCV": {"test_system": "HCV", "experiment": "Phase 1b clinical trial (MAD study), plasma HCV RNA", "type": "in vivo, human", "details": "for MEAN Δ change from baseline (log HCV RNA level): on-therapy analysis", "text": "A 14 day randomized, double-blind, placebo-controlled, sequential-group study of multiple ascending doses (MAD) included subjects with chronic HCV infection who were naïve to treatment. Subjects were enrolled in sequential, ascending dose cohorts with a target of 16 subjects (12 subjects receiving the BZF and 4 receiving placebo in each cohort). The first cohorts assessed the effect of the BZF as monotherapy compared to placebo. Subsequent cohorts were comprised of subjects who received pegylated interferon alfa-2b (PEG-Intron; 1.5 μg/kg/dose) administered subcutaneously on days −1 and 7 in combination with either placebo or the BZF administered orally (100 mg, 250 mg, 500 mg or 1000 mg every 12 hours, in combinations of 25 mg or 200 mg capsules) from days 1 to 14. […] The mean viral load for each treatment group at study entry was >6.0 log 10 UI/ml HCV RNA."}, "[2]": {"details": "Day 14, BZF 100 mg, all genotypes"}, "[3]": {"details": "Day 14, BZF 250 mg, all genotypes"}, "[4]": {"details": "Day 14, BZF 500 mg, all genotypes"}, "[5]": {"details": "Day 14, BZF 1000 mg, all genotypes"}}}
{"smiles": "CNC(=O)c1c(-c2ccc(F)cc2)oc2cc(N(CCO)S(C)(=O)=O)c(C3CC3)cc12", "note": "[BZF, 5-cyclopropyl-2-(4-fluoro-phenyl)-6-[(2-hydroxy-ethyl)-methanesulfonyl-amino]-benzofuran-3-carboxylic acid methylamide]", "values": [{"measurement": "IC50", "setting": "[1]", "value": "< 500", "unit": "nM"}, {"measurement": "MEAN Δ change from baseline (log HCV RNA level)", "setting": "HCV; Day 4, BZF 500 mg every 12 hours, all genotypes", "value": "−1.43", "unit": "log"}, {"measurement": "MEAN Δ change from baseline (log HCV RNA level)", "setting": "HCV; Day 7, BZF 500 mg every 12 hours, all genotypes", "value": "−1.30", "unit": "log"}, {"measurement": "% Subjects BQL (below quantification limits, <50 IU/mL)", "setting": "HCV; [2]", "value": 0, "unit": "%"}, {"measurement": "% Subjects with ≧1.5 log ↓ in log10 HCV RNA", "setting": "HCV; [2]", "value": "2 (17%)"}, {"measurement": "% Subjects with ≧2 log ↓ in log10 HCV RNA", "setting": "HCV; [2]", "value": 0, "unit": "%"}, {"measurement": "% Subjects with ≧3 log ↓ in log10 HCV RNA", "setting": "HCV; [2]", "value": 0, "unit": "%"}, {"measurement": "% Subjects BQL (below quantification limits, <50 IU/mL)", "setting": "HCV; [3]", "value": 0, "unit": "%"}, {"measurement": "% Subjects with ≧1.5 log ↓ in log10 HCV RNA", "setting": "HCV; [3]", "value": 0, "unit": "%"}, {"measurement": "% Subjects with ≧2 log ↓ in log10 HCV RNA", "setting": "HCV; [3]", "value": 0, "unit": "%"}, {"measurement": "% Subjects with ≧3 log ↓ in log10 HCV RNA", "setting": "HCV; [3]", "value": 0, "unit": "%"}, {"measurement": "MEAN Δ change from baseline (log HCV RNA level)", "setting": "HCV; Day 14, BZF 500 mg every 12 hours, all genotypes", "value": "−0.64", "unit": "log"}, {"measurement": "% Subjects BQL (below quantification limits, <50 IU/mL)", "setting": "HCV; [4]", "value": 0, "unit": "%"}, {"measurement": "% Subjects with ≧1.5 log ↓ in log10 HCV RNA", "setting": "HCV; [4]", "value": "1 (8%)"}, {"measurement": "% Subjects with ≧2 log ↓ in log10 HCV RNA", "setting": "HCV; [4]", "value": "1 (8%)"}, {"measurement": "% Subjects with ≧3 log ↓ in log10 HCV RNA", "setting": "HCV; [4]", "value": 0, "unit": "%"}, {"measurement": "% Subjects BQL (below quantification limits, <50 IU/mL)", "setting": "HCV; Day 14, BZF 500 mg, genotype 1", "value": 0, "unit": "%"}, {"measurement": "% Subjects with ≧1.5 log ↓ in log10 HCV RNA", "setting": "HCV; Day 14, BZF 500 mg, genotype 1", "value": "1 (13%)"}, {"measurement": "% Subjects with ≧2 log ↓ in log10 HCV RNA", "setting": "HCV; Day 14, BZF 500 mg, genotype 1", "value": "1 (13%)"}, {"measurement": "% Subjects with ≧3 log ↓ in log10 HCV RNA", "setting": "HCV; Day 14, BZF 500 mg, genotype 1", "value": 0, "unit": "%"}, {"measurement": "% Subjects BQL (below quantification limits, <50 IU/mL)", "setting": "HCV; [5]", "value": 0, "unit": "%"}, {"measurement": "% Subjects with ≧1.5 log ↓ in log10 HCV RNA", "setting": "HCV; [5]", "value": "2 (17%)"}, {"measurement": "% Subjects with ≧2 log ↓ in log10 HCV RNA", "setting": "HCV; [5]", "value": "2 (17%)"}, {"measurement": "% Subjects with ≧3 log ↓ in log10 HCV RNA", "setting": "HCV; [5]", "value": "1 (8%)"}]}
